Source: paper PMC6934184, “Selective DNA-PKcs inhibition extends the therapeutic index of localized radiotherapy and chemotherapy” (The Journal of Clinical Investigation, 2019)

Target: T1, ACVRL1 (ALK1) (Homo sapiens, UniProt P37023)
T1 construct: purchased Thermo Fisher Scientific (Life Technologies) SelectScreen
Assay: SelectScreen LanthaScreen
Assay type: binding
Details: read-out: % displacement
How it was run: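 SelectScreen broad panel; activity (Z'LYTE, Adapta) plus binding formats. ATP: Km app for CSF1R Z'LYTE; 10 for CAMK1 Adapta. Readout = % per kinase.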

T1 sequence (P37023 22-503): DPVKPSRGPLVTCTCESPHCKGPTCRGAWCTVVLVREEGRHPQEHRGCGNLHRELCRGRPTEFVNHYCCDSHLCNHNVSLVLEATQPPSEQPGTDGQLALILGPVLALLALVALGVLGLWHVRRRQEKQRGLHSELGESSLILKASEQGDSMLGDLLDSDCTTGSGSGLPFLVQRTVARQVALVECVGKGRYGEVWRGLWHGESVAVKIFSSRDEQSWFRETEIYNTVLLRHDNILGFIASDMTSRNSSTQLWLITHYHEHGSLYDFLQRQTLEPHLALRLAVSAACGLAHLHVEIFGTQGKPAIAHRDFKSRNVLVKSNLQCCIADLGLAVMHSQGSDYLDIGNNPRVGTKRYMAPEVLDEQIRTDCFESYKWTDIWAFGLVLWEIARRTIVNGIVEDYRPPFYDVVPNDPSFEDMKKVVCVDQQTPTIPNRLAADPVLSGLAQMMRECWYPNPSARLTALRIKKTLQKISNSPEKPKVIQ

SMILES: CN(C(=O)CN1CCOCC1)c1ccc2sc3c(-c4cccc5c(=O)cc(N6CC7CCC(C6)O7)oc45)cccc3c2c1 [NU5455]
- inhibition at 1 µM: 2.3%
